Among the test systems are UACC-62 melanoma; NCI/ADR-RES ovarian; MALME-3M melanoma; HT29 colon; MDA-N; HOP-92 NSCLC; SK-MEL-5 melanoma; NCI-H460 lung; A498 renal; NCI-H226 lung.
Holding throughout (experiment): NCI anticancer screen, dose series, 48 h

Each structure is given as a SMILES string.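 Exposure lasted 48 hours, with cells grown in 96-well plates and compounds tested at five concentrations. The concentration for full growth arrest is given as TGI.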

Regarding `Nc1nc(=O)n(C2CC(O)C(CO)O2)c2nc(-c3ccc(-c4ccccc4)cc3)cnc12` (stereo not given), the TGI in the experiment on UACC-62 melanoma was 61.1 µM; with NCI/ADR-RES ovarian, greater than 100 µM; in the experiment with MALME-3M melanoma, greater than 100 µM; in the experiment with HT29 colon, greater than 100 µM; in the experiment on MDA-N it was greater than 100 µM; in the experiment on HOP-92 NSCLC, greater than 100 µM. The TGI in the experiment on SK-MEL-5 melanoma is greater than 100 µM; in the experiment on NCI-H460 lung it was greater than 100 µM; with A498 renal, greater than 100 µM; with NCI-H226 lung, 64.9 µM.
With `O=C1CN2CCN(CC2)CC(=O)Nc2ccc(cc2)S(=O)(=O)c2ccc(cc2)NC(=O)CN2CCN(CC2)CC(=O)Nc2ccc(cc2)S(=O)(=O)c2ccc(cc2)N1`, the TGI was greater than 67.9 µM with UACC-62 melanoma; greater than 87.3 µM in the experiment with NCI/ADR-RES ovarian; 38.8 µM in the experiment with MALME-3M melanoma; 51 µM with HT29 colon; greater than 100 µM in the experiment with MDA-N; greater than 100 µM in the experiment on HOP-92 NSCLC. The TGI in the experiment with SK-MEL-5 melanoma is greater than 100 µM; in the experiment on NCI-H460 lung, 38.4 µM; in the experiment with A498 renal it was greater than 100 µM; with NCI-H226 lung, greater than 100 µM.
`O=C1CCCC1C(O)(C(F)(F)Cl)C(F)(F)Cl` (stereo not given): the TGI in the experiment on UACC-62 melanoma, in the experiment with NCI/ADR-RES ovarian, with MALME-3M melanoma, in the experiment with HT29 colon, with MDA-N and with HOP-92 NSCLC was greater than 10 µM in each case. The TGI in the experiment on SK-MEL-5 melanoma, in the experiment on NCI-H460 lung, in the experiment on A498 renal and in the experiment on NCI-H226 lung was greater than 10 µM in each case.
For `CN(C)CCNc1nc2c(c(=O)n(C)c(=O)n2C)n1C`, the TGI in the experiment on UACC-62 melanoma, in the experiment with NCI/ADR-RES ovarian, in the experiment with MALME-3M melanoma, in the experiment on HT29 colon, in the experiment with MDA-N and in the experiment with HOP-92 NSCLC was greater than 100 µM throughout. In addition, the TGI with SK-MEL-5 melanoma, with NCI-H460 lung, in the experiment with A498 renal and in the experiment with NCI-H226 lung was greater than 100 µM throughout.
As for `O=C(O)COc1cccc2ccccc(=O)c12`, the TGI in the experiment with UACC-62 melanoma, in the experiment with NCI/ADR-RES ovarian, in the experiment on MALME-3M melanoma, in the experiment with HT29 colon, in the experiment on MDA-N and in the experiment with HOP-92 NSCLC was greater than 100 µM each time. Besides, the TGI with SK-MEL-5 melanoma, with NCI-H460 lung, in the experiment on A498 renal and in the experiment on NCI-H226 lung was greater than 100 µM in each case.
For `CN(C)C=Nc1cccc2c1NSN2`, the TGI in the experiment on UACC-62 melanoma, in the experiment with NCI/ADR-RES ovarian, in the experiment on MALME-3M melanoma, with HT29 colon, in the experiment with MDA-N and in the experiment with HOP-92 NSCLC was greater than 100 µM throughout. Moreover, the TGI in the experiment on SK-MEL-5 melanoma, with NCI-H460 lung, in the experiment with A498 renal and in the experiment on NCI-H226 lung was greater than 100 µM throughout.
Consider `COc1ccc([C@H]2C=C(c3cc(F)c(Cl)cc3Cl)N=c3s/c(=C\c4ccc(-c5ccc(Cl)cc5Cl)o4)c(=O)n32)cc1`, for which the TGI in the experiment on UACC-62 melanoma, in the experiment with NCI/ADR-RES ovarian, with MALME-3M melanoma, in the experiment on HT29 colon, in the experiment on MDA-N and in the experiment with HOP-92 NSCLC was greater than 100 µM in each case. The TGI in the experiment with SK-MEL-5 melanoma was greater than 100 µM; with NCI-H460 lung, greater than 100 µM; in the experiment on A498 renal, 6.58 µM; in the experiment on NCI-H226 lung, greater than 100 µM.
Regarding `NC(=O)NC(=O)c1cccc(C(=O)NC(N)=O)n1`, the TGI in the experiment on UACC-62 melanoma, in the experiment on NCI/ADR-RES ovarian, in the experiment with MALME-3M melanoma, in the experiment with HT29 colon, in the experiment on MDA-N and with HOP-92 NSCLC was greater than 100 µM in each case. Also, the TGI in the experiment on SK-MEL-5 melanoma, in the experiment on NCI-H460 lung, in the experiment with A498 renal and with NCI-H226 lung was greater than 100 µM each time.
`C=CCOC1=C(OC(C)=O)C(C2COC(C)(C)O2)OC1=O` (stereo not given): the TGI is 68.2 µM in the experiment with UACC-62 melanoma; greater than 100 µM with NCI/ADR-RES ovarian; 35.1 µM in the experiment on MALME-3M melanoma; 38.4 µM in the experiment on HT29 colon; greater than 100 µM with MDA-N; 34.5 µM in the experiment with HOP-92 NSCLC. Moreover, the TGI with SK-MEL-5 melanoma is 33.6 µM; in the experiment with NCI-H460 lung it was 61.4 µM; with A498 renal, greater than 100 µM; in the experiment with NCI-H226 lung it was greater than 100 µM.
For `O=[N+]([O-])C(=C(\Cl)NCCO)/C(Cl)=C(/Cl)Br`, the TGI was 4.78 µM with UACC-62 melanoma; 7.42 µM in the experiment with NCI/ADR-RES ovarian; 3.8 µM with MALME-3M melanoma; 3.67 µM in the experiment on HT29 colon; 3.97 µM with MDA-N; 3.53 µM with HOP-92 NSCLC. Also, the TGI stood at 7.3 µM with SK-MEL-5 melanoma, 10.8 µM in the experiment on NCI-H460 lung, 12 µM in the experiment with A498 renal and 17.7 µM in the experiment on NCI-H226 lung.
On to `COc1ccc2oc(=O)c(-c3nc4ccccc4s3)cc2c1`, for which the TGI with UACC-62 melanoma was greater than 100 µM; in the experiment with NCI/ADR-RES ovarian, greater than 96 µM; in the experiment with MALME-3M melanoma it was 28.2 µM; with HT29 colon, 33.1 µM; with MDA-N, greater than 67.2 µM; with HOP-92 NSCLC it was 58.2 µM. Also, the TGI was greater than 100 µM with SK-MEL-5 melanoma, greater than 100 µM in the experiment with NCI-H460 lung, 54.2 µM with A498 renal and greater than 63.1 µM in the experiment with NCI-H226 lung.
In the case of `CC1=NN(c2cccc(S(=O)(=O)O)c2)C2(C1)SCC(=O)N2c1nc2ccccc2s1` (stereo not given), the TGI in the experiment with UACC-62 melanoma, in the experiment on NCI/ADR-RES ovarian, in the experiment on MALME-3M melanoma, with HT29 colon, with MDA-N and in the experiment with HOP-92 NSCLC was greater than 100 µM in each case. The TGI in the experiment with SK-MEL-5 melanoma, with NCI-H460 lung, in the experiment on A498 renal and in the experiment with NCI-H226 lung was greater than 100 µM each time.
With `NCCCCNCCCNC(=O)c1csc(-c2nc(CCN)sc2Cl)n1`, the TGI in the experiment with UACC-62 melanoma is greater than 100 µM; with NCI/ADR-RES ovarian, greater than 100 µM; with MALME-3M melanoma, greater than 100 µM; in the experiment on HT29 colon, greater than 100 µM; in the experiment on MDA-N, greater than 100 µM; with HOP-92 NSCLC, 79.5 µM. The TGI in the experiment on SK-MEL-5 melanoma, in the experiment with NCI-H460 lung, in the experiment with A498 renal and in the experiment on NCI-H226 lung was greater than 100 µM throughout.

Source of the values: PubChem BioAssay (NCI).
